# Measurements published in US20040082623A1, “Fmoc-l-leucine and derivatives thereof as ppar-gamma agonists” (priority 2003, published 2004).
# Tests used:
# PPARγ2 [1] = molecular target: T1, PPARγ2 (Homo sapiens, UniProt P37231); test: Transient transfection, PPARγ2 reporter in RK13 cells; type: cell-based; set-up: a construct containing the entire cDNA of the human PPARγ2 (hPPARγ2); expressed in transfected cells; host or cells: Hep G2, RK13 or CV1 cells; conditions: RK13 cells, 10^−5 M added
# T1 sequence (P37231 1-505): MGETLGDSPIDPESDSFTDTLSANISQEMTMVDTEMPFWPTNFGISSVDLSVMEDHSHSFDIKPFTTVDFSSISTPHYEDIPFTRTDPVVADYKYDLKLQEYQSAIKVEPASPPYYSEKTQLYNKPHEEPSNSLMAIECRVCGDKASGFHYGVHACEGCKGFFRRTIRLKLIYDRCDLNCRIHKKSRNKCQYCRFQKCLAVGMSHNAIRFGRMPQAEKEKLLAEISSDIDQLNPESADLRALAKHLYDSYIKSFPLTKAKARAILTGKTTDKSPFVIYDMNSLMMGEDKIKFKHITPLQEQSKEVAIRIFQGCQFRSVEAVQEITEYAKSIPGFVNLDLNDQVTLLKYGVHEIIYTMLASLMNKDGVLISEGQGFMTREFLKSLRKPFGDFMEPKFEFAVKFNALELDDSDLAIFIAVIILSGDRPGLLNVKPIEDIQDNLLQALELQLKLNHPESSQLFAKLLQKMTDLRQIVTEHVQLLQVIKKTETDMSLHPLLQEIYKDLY
# Experimental: (§1) RK13 cells (A and D), CV1 cells (B) or Hep G2 cells (C) were co-transfected with an expression vector for PPARγ2 (0.1 μg/well), pGL3-(Jwt)3TKLuc reported construct (0.5 μg/well), and pCMV-βGal (0.5 μg/well), as a control of transfection efficiency (0.5 μg/well). They were then grown during 24 h in the presence or absence of indicated compound. Activation is expressed as relative luciferase activity/β ? galactosidase activity. Each point was performed in triplicate, and each figure i ? representative of four independent experiments.
# (§2) The CV1, RK-13, and Hep G2 cell lines were obtained from ATCC (Rockville, Md.). Cells were maintained in Dulbecco's modified Eagle's minimal essential medium (DMEM) supplemented with 10% fetal calf serum (FCS), L-glutamine, and antibiotics. Transfections with chloramphenicol acetyltransferase (CAT) or luciferase (luc.) reporter constructs were carried out exactly as described previously (Schoonjans et al., 1996). The pGL3-(Jwt)3TKLuc and the pGL3-(Jwt)3TKCAT reporter constructs contain both three tandem repeats of the J site of the apolipoprotein A-II promoter cloned upstream of the herpes simplex virus thymidine kinase (TK) promoter and the luciferase or the CAT reporter genes respectively (Vu-Dac et al., 1995). The following expression vectors were used; pSG5-hPPARγ2, a construct containing the entire cDNA of the human PPARγ2 (hPPARγ2) (Fajas et al., 1997); pSG5-mPPARα (Isseman et al., 1993); and pCMV-βGal, as a control of transfection efficiency.
# PPARγ2 [2] = molecular target: T1, PPARγ2; test: Transient transfection, PPARγ2 reporter (luciferase/β-galactosidase) in Hep G2 cells; type: cell-based; set-up: a construct containing the entire cDNA of the human PPARγ2 (hPPARγ2); expressed in transfected cells; host or cells: Hep G2; conditions: HepG2 cells, pSG5-hPPARγ2, 24 h, F-L-leu at 10^−5 M
# Experimental: Hep G2 cells were co-transfected with an expression vector for PPARγ2 (0.1 μg/well), pGL3-(Jwt)3TKLuc reporter construct (0.5 μg/well), and pCMV-βGal (0.5 μg/well), as a control of transfection efficiency (0.5 μg/well). The were then grown during 24 h in the presence or absence of indicated compound Activation is expressed as relative luciferase activity/β-galactosidase activity. Each point was performed in triplicate. This figure is representative of three independent experiments.
# as §1, §2
# db/db mice = conditions: db/db
# Experimental: Intraperitoneal glucose tolerance test (IPGTT) in C57BL/6j (A) or db/db (B) mice 10 to 12 weeks old (n=8).
# All mice were maintained in a temperature-controlled (25° C.) facility with a strict 12 h ? light/dark cycle and were given free access to food (standard mice chow; DO4, UAR ? France) and water.
# C57B1/6J and db/db mice (8 per group) were obtained through the Janvier laboratorie ? (Laval-Le Genest, France).
Structure (SMILES),modification of PPARγ activity when added to a saturating concentration of rosiglitazone (PPARγ2 [1]),PPARγ activation (relative luciferase activity/β-galactosidase activity) (PPARγ2 [2]),PPARγ activation (relative luciferase activity/β-galactosidase activity) (PPARγ2 [2]; listed as FMOC substituted L-tyrosine derivative),"maximal glycemia in IPGTT (db/db mice; 10 mg/kg/day i.p., 7 days, DMSO control 500)","body weight vs control mice (db/db mice; 10 mg/kg/day, 8 days)","fasting serum insulin levels (mean) (db/db mice; 7 days treatment, DMSO group 180)"
"CC(C)C[C@@H](NC(=O)OCC1c2ccccc2-c2ccccc21)C(=O)O [FMOC-D-leucine, reference compound]",No significant modification,no significant PPARγ activation,,,,
"O=C(N[C@@H](Cc1ccc(O)cc1)C(=O)O)OCC1c2ccccc2-c2ccccc21 [FMOC-L-tyrosine, reference compound]",No significant modification,devoid of,did not activate PPARγ,,,
"CN(CCOc1ccc(CC2SC(=O)NC2=O)cc1)c1ccccn1 (centres unmarked) [rosiglitazone, reference compound]",,,,350 mg/dL,tendency to increase body weight,70 μUI/mL
